Measured values as given in patent US11667631B2, “FGFR4 inhibitor, preparation method therefor, and applications thereof” (Jiangsu Hansoh Pharmaceutical Group Co., Ltd., priority 2016, dated 2023).
Like-named read-outs stand apart in the source and are kept apart here.

How the values were obtained:
HuH-7 cells = experiment: Inhibition of HuH-7 cell proliferation (CellTiter-Glo); format: cell-based; conditions: Homo sapiens; HuH-7 cell proliferation, 72 hours, CellTiter-Glo; read-out: HuH-7 IC50
Procedure, shortened: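 HuH-7 cells plated and left 16–24 h, then exposed to serially diluted compound for 72 h at 37 °C, 5% CO2. Viability read by CellTiter-Glo luminescence. IC50 obtained by curve fitting of inhibition rates.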

SK-HEP-1 cells = experiment: Inhibition of SK-HEP-1 cell proliferation (CellTiter-Glo); format: cell-based; conditions: Homo sapiens, SK-HEP1; SK-HEP-1 cell proliferation, 72 hours, CellTiter-Glo; read-out: SK-HEP-1 IC50
Procedure, shortened: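 Cells seeded and allowed to attach 16–24 h, then exposed to serially diluted compound for 72 h at 37 °C, 5% CO2. Viability read by CellTiter-Glo luminescence; IC50 fitted from inhibition rates across concentrations.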

Hep 3B cells = experiment: Inhibition of Hep 3B cell proliferation (CellTiter-Glo); format: cell-based; conditions: Homo sapiens, Hep3B; Hep 3B cell proliferation, 72 hours, CellTiter-Glo; read-out: Hep 3B IC50
FGFR4 kinase = FGFR4 kinase (Homo sapiens (Human), UniProt P22455); experiment: Enzymologic experiment of FGFR4 (TR-FRET); format: biochemical; conditions: FGFR4 kinase activity
Method: In this experiment, the inhibitory effect of the compounds on FGFR4 kinase activity was tested by a fluorescence resonance energy transfer (TR-FRET) method, and the half maximal inhibitory concentration (IC50) of the compounds on the FGFR4 kinase activity was determined.
2) 1˜5 μL of diluted solution in gradient of the compound was added.
3) 1˜5 μL of a substrate mixture containing substrate polypeptide with a final concentration of 5˜50 nM and ATP with a final concentration of 10˜200 μM was added.
4) The mixture was incubated for 0.5˜3 hours at room temperature.
5) 10 μL of EDTA and a test solution comprising labeled antibody were added, and the plate was incubated for 1 hour at room temperature.
7) The inhibition rates were calculated according to the fluorescence signal values.

FGFR1 kinase = FGFR1 kinase (Homo sapiens (Human), UniProt P11362); experiment: Enzymologic experiment of FGFR1 (TR-FRET); format: biochemical; conditions: FGFR1 kinase activity
Procedure, shortened: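 FGFR1 at 0.1˜5 nM final with substrate peptide 5˜50 nM and ATP 10˜200 μM final, 0.5˜3 h at room temperature. Stopped with EDTA plus labeled antibody for 1 h; TR-FRET signal read at 665 nm, IC50 fitted from inhibition rates.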

[1] = Pharmacokinetic (PK) analysis in rats; format: in vivo, Sprague Dawley (SD) rats; conditions: SD rats, single intragastric administration, 5 mg/kg; for Peak Time tmax: (sampling in hours); for AUC(0-t) / AUC(0-inf) / half-life / MRT / Cmax: Sprague-Dawley, rat, plasma, po; for AUC(0-t): read-out: Area Under Curve AUC0-t; for AUC(0-inf): read-out: Area Under Curve AUC0-∞; for half-life: read-out: Half-Time t1/2 (converted); for MRT: read-out: Mean Residence Time MRT; for Cmax: read-out: Plasma Concentration Cmax
Procedure, shortened: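 Intravenous blood (0.2 ml) was collected into K2EDTA and centrifuged to obtain plasma. Plasma (40 μL) was protein-precipitated with 160 μL acetonitrile. Compound levels were measured by LC/MS/MS on a C18 column using 0.1% formic acid in water and acetonitrile at 0.8 mL/min.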

Hep 3B cell line tumor = experiment: Pharmacodynamics test in vivo, Hep 3B tumor-bearing nude mice; conditions: Mus musculus, Hep3B, oral 30 mg/kg, 2 times/day, read-out: Tumor inhibition rate
Method: a, A Hep 3B cell line was taken from the cell bank, and the cells were resuscitated with the MEM culture medium (MEM+10% FBS+1% Glu+1% SP). The cells were placed in the cell culture bottle after resuscitation (cell type, date, and the name of the culturing person were marked on the bottle wall) and were incubated in a CO2 Incubator (the incubator temperature was 37° C., and the CO2 concentration was 5%).
b, The cells were passaged after 80-90% of the bottom of the culture bottle was covered by the cells. After passage, the cells were further incubated in the CO2 incubator. The process was repeated until the number of cells met the pharmacodynamic requirements in vivo.
c, The cultured cells were collected and counted by automatic cell counter. According to the counting results, the cells were resuspended with PBS to prepare a cell suspension (density: 7×10^7/mL), which was placed in the ice box for use.
a, Nude mouse was marked with a disposable universal ear tag for mouse and rat before inoculation, and the skin of the inoculated site was disinfected with 75% medical alcohol.
b, At the time of inoculation, the cell suspension was mixed well, 0.1˜1 mL of cell suspension was taken with a 1 mL syringe, after removing air bubbles, and the syringe was placed on an ice bag for use.
c, The nude mice were inoculated successively (the inoculated site was located on the right shoulder of the right back of the nude mice, and inoculated subcutaneously with 0.1 mL of cell suspension).
a, Tumor was measured on Day 14 to Day 16 after inoculation depending on the tumor growth, and tumor size was calculated.
Tumor volume calculation: tumor volume (mm^3)=length (mm)×width (mm)×width (mm)/2
b, According to the size of the tumor, the mice were grouped by random grouping.
c, According to the results of the grouping, the test drug was administered (administration method: oral administration, administration dose: 30 mg/kg, administration volume: 10 mL/kg, administration frequency: 2 times/day, […], vehicle: 0.5% CMC/1% Tween 80).
d, The tumor was measured and weighed twice a week after the test drug was administrated.
e, Animals were euthanized at the end of the test.

Sequence of FGFR1 kinase (P11362 22-822): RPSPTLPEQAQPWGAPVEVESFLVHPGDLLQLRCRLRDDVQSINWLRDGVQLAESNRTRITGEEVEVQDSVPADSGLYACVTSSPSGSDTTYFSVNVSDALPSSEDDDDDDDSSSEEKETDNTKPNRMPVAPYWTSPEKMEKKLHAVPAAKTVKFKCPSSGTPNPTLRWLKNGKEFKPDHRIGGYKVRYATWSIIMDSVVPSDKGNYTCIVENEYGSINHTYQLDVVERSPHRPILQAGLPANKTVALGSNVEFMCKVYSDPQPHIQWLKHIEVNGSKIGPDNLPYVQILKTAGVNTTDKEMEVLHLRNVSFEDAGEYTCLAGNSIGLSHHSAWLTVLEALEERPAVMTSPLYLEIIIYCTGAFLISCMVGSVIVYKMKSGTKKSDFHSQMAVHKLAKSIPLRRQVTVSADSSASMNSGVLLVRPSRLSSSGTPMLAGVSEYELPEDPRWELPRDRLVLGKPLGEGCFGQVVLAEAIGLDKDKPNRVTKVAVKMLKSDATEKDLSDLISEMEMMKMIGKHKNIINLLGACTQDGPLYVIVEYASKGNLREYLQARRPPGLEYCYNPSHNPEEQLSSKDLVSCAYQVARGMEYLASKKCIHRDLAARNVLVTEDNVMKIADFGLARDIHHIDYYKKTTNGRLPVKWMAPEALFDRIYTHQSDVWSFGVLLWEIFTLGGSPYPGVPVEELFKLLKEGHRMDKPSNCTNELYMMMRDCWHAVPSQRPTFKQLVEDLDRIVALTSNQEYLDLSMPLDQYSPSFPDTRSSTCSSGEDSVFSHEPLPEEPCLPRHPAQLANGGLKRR
Sequence of FGFR4 kinase (P22455 22-802): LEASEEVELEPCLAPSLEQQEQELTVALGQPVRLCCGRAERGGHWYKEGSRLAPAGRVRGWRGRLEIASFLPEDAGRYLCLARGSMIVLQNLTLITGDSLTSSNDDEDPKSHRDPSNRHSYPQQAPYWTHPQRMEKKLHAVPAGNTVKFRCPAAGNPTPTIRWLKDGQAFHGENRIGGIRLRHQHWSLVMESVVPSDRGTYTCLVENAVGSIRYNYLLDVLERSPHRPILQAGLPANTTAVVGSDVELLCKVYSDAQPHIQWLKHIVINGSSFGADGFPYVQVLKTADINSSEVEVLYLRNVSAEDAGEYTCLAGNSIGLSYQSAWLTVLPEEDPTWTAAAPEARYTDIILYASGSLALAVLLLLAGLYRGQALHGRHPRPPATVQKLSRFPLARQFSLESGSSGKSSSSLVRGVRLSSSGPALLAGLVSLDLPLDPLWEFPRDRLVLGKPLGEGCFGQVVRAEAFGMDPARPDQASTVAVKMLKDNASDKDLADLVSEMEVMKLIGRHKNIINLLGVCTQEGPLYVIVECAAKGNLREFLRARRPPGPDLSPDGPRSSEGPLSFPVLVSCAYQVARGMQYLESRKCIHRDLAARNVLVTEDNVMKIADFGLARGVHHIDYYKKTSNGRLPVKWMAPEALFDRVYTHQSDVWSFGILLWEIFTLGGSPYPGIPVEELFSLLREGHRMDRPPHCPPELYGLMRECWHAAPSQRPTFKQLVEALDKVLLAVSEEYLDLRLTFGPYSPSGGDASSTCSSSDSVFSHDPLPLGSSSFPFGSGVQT

Row | SMILES | IC50 (HuH-7 cells) [nM] | IC50 (SK-HEP-1 cells) [nM] | IC50 (Hep 3B cells) [nM] | IC50 (FGFR4 kinase) [nM] | IC50 (FGFR1 kinase) [nM] | Peak Time tmax [1] [h] | AUC(0-t) [1] [ng·h/mL] | AUC(0-inf) [1] [ng·h/mL] | half-life [1] [h] | MRT [1] [h] | Cmax [1] [ng/mL] | inhibition in vivo at 30 mg/kg (Hep 3B cell line tumor; 240 h, 10 days of administration) [%] | inhibition in vivo at 30 mg/kg (Hep 3B cell line tumor; 216 h, 9 days of administration) [%]
1 | COc1ccccc1Nc1cc(NC(=O)N2CCCc3cc(CN4CCOCC4=O)c(C=O)nc32)ncc1C#N [Example 8, N-(5-Cyano-4-((2-methoxyphenyl)amino)pyridin-2-yl)-7-formyl-6-((3-carbonylmorpholino)methyl)-3,4-dihydro-1,8-naphthyridin-1(2H)-carboxamide] | 8.6 | > 10000 | 0.9 | 3.4 | > 10000 | 2 | 4790 | 4940 | 1.16 | 3.74 | 2060 | – | –
2 | COC1(CNc2cc(NC(=O)N3CCCc4cc(CN5CCCOCC5=O)c(C=O)nc43)ncc2C#N)CC1 [Example 25, N-(5-Cyano-4-(((1-methoxycyclopropyl)methyl)amino)pyridin-2-yl)-7-formyl-6-((3-carbonyl-1,4-oxazepin-4-yl)methyl)-3,4-dihydro-1,8-naphthyridin-1(2H)-carboxamide] | – | – | – | – | – | – | – | – | – | – | – | 68.4 | –
3 | COC[C@@H](C)Oc1cc(NC(=O)N2CCCc3cc(CN4CCCOCC4=O)c(C=O)nc32)ncc1C#N [Example 28, (R)-N-(5-Cyano-4-((1-methoxypropan-2-yl)oxy)pyridin-2-yl)-7-formyl-6-((3-carbonyl-1,4-oxazepin-4-yl)methyl)-3,4-dihydro-1,8-naphthyridin-1(2H)-carboxamide] | – | – | – | – | – | – | – | – | – | – | – | – | 74.3
4 | CO[C@H]1COCC1Nc1cc(NC(=O)N2CCCc3cc(CN4C(=O)OCC4C)c(C=O)nc32)ncc1C#N (stereo partly drawn) [Example 46, N-(5-Cyano-4-trans-(((3,4)-4-methoxytetrahydrofuran-3-yl)amino)pyridin-2-yl) -7-formyl-6-(((S)-4-methyl-2-carbonyloxazolidin-3-yl)methyl)-3,4-dihydro-1,8-naphthyridin-1(2H)-carboxamide] | 44.4 | > 10000 | 12.7 | 2.93 | > 10000 | 4 | 1530 | 1530 | 2.55 | 6.24 | 1930 | – | –
5 | CONc1cc(NC(=O)N2CCCc3cc(CN4CCOCC4=O)c(C=O)nc32)ncc1C#N [Example 54, N-(5-Cyano-4-(methoxyamino)pyridin-2-yl)-7-formyl-6-((3-carbonylmorpholino)methyl)-3,4-dihydro-1,8-naphthyridine-1(2H)-carboxamide] | 24.1 | > 10000 | 17.5 | 2.77 | > 10000 | 4 | 5530 | 5690 | 0.98 | 3.86 | 1290 | – | –
6 | COc1ncccc1CNc1cc(NC(=O)N2CCCc3cc(CN4CCOCC4=O)c(C=O)nc32)ncc1C#N [Example 57, N-(5-Cyano-4-(((2-methoxypyridin-3-yl)methyl)amino)pyridin-2-yl)-7-formyl-6-((3-carbonylmorpholino)methyl)-3,4-dihydro-1,8-naphthyridin-1(2H)-carboxamide] | 24.3 | > 10000 | 10.2 | 7.63 | > 10000 | – | – | – | – | – | – | – | –
7 | CO[C@H]1CCN(c2cc(NC(=O)N3CCCc4cc(CN5CCN(C)CC5=O)c(C=O)nc43)ncc2C#N)C1 [Example 63, (S)-N-(5-Cyano-4-(3-methoxypyrrolidin-1-yl)pyridin-2-yl)-7-formyl-6-((4-methyl-2-carbonylpiperazin-1-yl)methyl)-3,4-dihydro-1,8-naphthyridin-1(2H)-carboxamide] | 28.9 | > 10000 | 13.8 | 2.49 | > 10000 | 2 | 4990 | 4030 | 0.91 | 2.7 | 2060 | – | –
8 | CO[C@@H]1CCN(c2cc(NC(=O)N3CCCc4cc(CN5CCN(C)CC5=O)c(C=O)nc43)ncc2C#N)C1 [Example 64, (R)-N-(5-Cyano-4-(3-methoxypyrrolidin-1-yl)pyridin-2-yl)-7-formyl-6-((4-methyl-2-carbonylpiperazin-1-yl)methyl)-3,4-dihydro-1,8-naphthyridin-1(2H)-carboxamide] | 14.6 | > 10000 | 5.3 | 1.62 | > 10000 | – | – | – | – | – | – | – | –
9 | CO[C@H]1COCC1Nc1cc(NC(=O)N2CCCc3cc(CN4CCOCC4=O)c(C=O)nc32)ncc1C#N (stereo partly drawn) [Example 66, N-(5-Cyano-4-(((trans)-4-methoxytetrahydrofuran-3-yl)amino)pyridin-2-yl)-7-formyl-6-((3-carbonylmorpholino)methyl)-3,4-dihydro-1,8-naphthyridin-1(2H)-carboxamide] | 11.7 | > 10000 | 3.3 | 0.97 | > 10000 | 4 | 2480 | 2540 | 1 | 3.6 | 1880 | – | –
10 | CO[C@H]1COCC1Oc1cc(NC(=O)N2CCCc3cc(CN4CCOCC4=O)c(C=O)nc32)ncc1C#N (stereo partly drawn) [Example 67, N-(5-Cyano-4-(((3,4)-trans-4-methoxytetrahydrofuran-3-yl)oxy)pyridin-2-yl)-7-formyl-6-((3-carbonylmorpholino)methyl)-3,4-dihydro-1,8-naphthyridin-1(2H)-carboxamide] | 29.5 | > 10000 | 16.7 | 2.31 | > 10000 | 4 | 3990 | 4070 | 0.88 | 4.17 | 2840 | – | –
11 | CO[C@H]1CCOCC1Nc1cc(NC(=O)N2CCCc3cc(CN4CCOCC4=O)c(C=O)nc32)ncc1C#N (stereo partly drawn) [Example 70, N-(5-Cyano-4-(((3,4)-trans-4-methoxytetrahydro-2H-pyran-3-yl)amino)pyridin-2-yl)-7-formyl-6-((3-carbonylmorpholino)methyl)-3,4-dihydro-1,8-naphthyridin-1(2H) -carboxamide] | 19.4 | > 10000 | 6.2 | 1.34 | > 10000 | – | – | – | – | – | – | – | –
